Measured values from patent publication US5342980A, “Fungicidal agents” (American Cyanamid Company, priority 1992, dated 1994).

Experiments:
Venturia inaequalis = assay: In vivo fungicidal evaluation, Apple Scab (AS); settings: 200 ppm, plants sprayed before inoculation
Plasmopara viticola = assay: In vivo fungicidal evaluation, Grape Downy Mildew (GDM); settings: 200 ppm, plants sprayed before inoculation
Botrytis cinerea = assay: In vivo fungicidal evaluation, Pepper Botrytis (PB); settings: 200 ppm, plants sprayed before inoculation
Pyricularia oryzae = type: in vivo; settings: 200 ppm, plants sprayed before inoculation
Cercospora beticola = assay: In vivo fungicidal evaluation, Sugar Beet Cercospora (SBC); settings: plants sprayed before inoculation
Alternaria solani = assay: In vivo fungicidal evaluation, Tomato Early Blight (TEB); settings: 200 ppm, plants sprayed before inoculation
[1] = tested on: Puccinia recondita f. sp. tritici; assay: In vivo fungicidal evaluation, Wheat Leaf Rust (WLR); settings: 200 ppm, plants sprayed before inoculation
[2] = tested on: Erysiphe graminis f. sp. tritici; assay: In vivo fungicidal evaluation, Wheat Powdery Mildew (WPM); settings: 200 ppm, plants sprayed before inoculation
Rhizoctonia solani [3] = assay: In vivo fungicidal evaluation, Rice Sheath Blight (RSB); settings: 400 ppm, plants sprayed before inoculation
[4] = tested on: Fusarium oxysporum f. sp. cucumerinum; assay: In vitro fungicidal evaluation, growth inhibition (FUSOXC); type: cell-based; design: scale not given here; settings: 25 ppm, 3-4 days at 21° C.
Method: (§1) Test compounds are dissolved in acetone and dispersed into cell well plates containing a suspension of ground fungal mycelia in a nutrient broth. Assay plates are incubated for 3-4 days at 21° C. Growth inhibition is measured visually and is rated using the following scale:
(§2) Untreated controls, solvent blanks and reference standards are included in each test.
(§3) Assay fungi include the plant pathogens, Pythium ultimum (Pythul); Rhizoctonia solani (Rhizso); Fusarium oxysporum f. sp. cucumerinum (Fusoxc); and Pseudocercosporella herpotrichoides (Psdche).
(§4) When more than one test is run, the data are averaged.

[5] = tested on: Pseudocercosporella herpotrichoides; assay: In vitro fungicidal evaluation, growth inhibition (PSDCHE); type: cell-based; design: scale not given here; settings: 25 ppm, 3-4 days at 21° C.
Method: as §1, §2, §3, §4

Pythium ultimum = assay: In vitro fungicidal evaluation, growth inhibition (PYTHUL); type: cell-based; design: scale not given here; settings: 25 ppm, 3-4 days at 21° C.
Method: as §1, §2, §3, §4

Rhizoctonia solani [6] = assay: In vitro fungicidal evaluation, growth inhibition (RHIZSO); type: cell-based; design: scale not given here; settings: 25 ppm, 3-4 days at 21° C.
Method: as §1, §2, §3, §4

[7] = tested on: Fusarium oxysporium f. sp. cucumerinum; assay: Control of soil borne diseases, Cucumber Fusarium Wilt (CUFO); type: in vivo; settings: 14-18 days after treatment; also: ranges in brackets are in %
Method: (§5) Pasturized soil (100 mL) is added to 6 cm diameter plastic cups without drainage holes and covered with pathogen contaminated soil (30 mL). Ten germinated cucumber seeds are planted on the contaminated soil and the seeds are covered with pasteurized soil (20 mL). Test compounds are dissolved in acetone, diluted with deionized water containing about 0.05% TWEEN 20®, and applied to the pots by drenching the soil surface with 15 mL of test solution. The pots are placed in a greenhouse for disease development. The pots are watered lightly until plants emerge from the soil surface. Disease evaluations are made 14-18 days after treatment according to the rating scale shown below.

Pythium aphanidermantum = assay: Control of soil borne diseases, Cucumber damping-off by Pythium (CUPA); type: in vivo; settings: 14-18 days after treatment; also: ranges in brackets are in %
Method: as §5

Rhizoctonia solani [8] = assay: Control of soil borne diseases, Cucumber damping-off by Rhizoctonia (CURS); type: in vivo; settings: 14-18 days after treatment; also: ranges in brackets are in %
Method: as §5

Cercospora arachidicola = assay: In vivo fungicidal evaluation, Peanut Cercospora Early Leaf Spot (PCE); settings: 400 ppm, plants sprayed before inoculation
[9] = tested on: Pseudocercosporella herpotrichoides; assay: In vivo fungicidal evaluation, Wheat Eyespot (WES); settings: 400 ppm, plants sprayed before inoculation
Mycosphaerella fijiensis = assay: Control of banana black sigatoka on banana seedlings; type: in vivo; settings: 200 ppm, leaves sprayed to run-off; 28 to 40 days post inoculation
Method: Test compounds are dissolved in acetone and diluted with distilled water containing about 0.05% TWEEN 20® to give a concentration of 200 ppm. Banana seedlings at the 6-7 leaf stage are sprayed with test solution on the upper and lower surfaces of the 3 youngest, unfurled leaves to the point of run-off, dried and inoculated with a spore suspension of Mycosphaerella fijiensis. The inoculated banana seedlings are placed outdoors in a plastic tunnel lined with wet jute sacks. The temperature is maintained between about 25° and 32° C. and the relative humidity is maintained between about 85% and 100%. After five days, the banana seedlings are transferred to a partially shaded screenhouse, surrounded with wet jute sacks and misted daily. When disease symptom development is optimal, typically 28 to 40 days post inoculation, the banana seedlings are rated for disease control according to the rating scale shown below. Each test contains inoculated treated plants, inoculated untreated plants and a reference standard. When more than one test is run, the data are averaged.

Structure (SMILES) | disease control rating, AS (Venturia inaequalis) | disease control rating, GDM (Plasmopara viticola) | disease control rating, PB (Botrytis cinerea) | disease control rating, RB (Pyricularia oryzae) | disease control rating, SBC (Cercospora beticola; 200 ppm) | disease control rating, TEB (Alternaria solani) | disease control rating, WLR [1] | disease control rating, WPM [2] | disease control rating, RSB (Rhizoctonia solani [3]) | growth inhibition rating, FUSOXC [4] | growth inhibition rating, PSDCHE [5] | growth inhibition rating, PYTHUL (Pythium ultimum) | growth inhibition rating, RHIZSO (Rhizoctonia solani [6]) | disease control rating, SBC (Cercospora beticola; 400 ppm) | disease control rating, CUFO ([7]; 2.5 kg/ha soil drench) | disease control rating, CUFO ([7]; 5.0 kg/ha soil drench) | disease control rating, CUFO ([7]; 10.0 kg/ha soil drench) | disease control rating, CUPA (Pythium aphanidermantum; 2.5 kg/ha soil drench) | disease control rating, CUPA (Pythium aphanidermantum; 5.0 kg/ha soil drench) | disease control rating, CUPA (Pythium aphanidermantum; 10.0 kg/ha soil drench) | also measured
CN(O)C(=S)C(=O)C(C)(C)C.CN(O)C(=S)C(=O)C(C)(C)C.[Mn+2] [N,3,3-trimethyl-2-oxo-1-thiobutyrohydroxamic acid manganese(+2) chelate] | 8.5 | 5.5 | 8.5 | 3.0 | 7.5 | 8.5 | 6.5 | 7.0 | 0.0 | 0.0 | 7.0 | 6.0 | 4.5 |  |  |  |  |  |  |  | 
CN([O-])C(=S)C(=O)C(C)(C)C.CN([O-])C(=S)C(=O)C(C)(C)C.[Zn+2] [N,3,3-trimethyl-2-oxo-1-thiobutyrohydroxamic acid zinc(+2) chelate] | 9.0 | 9.0 | 8.5 | 8.0 | 8.4 | 8.5 | 7.5 | 3.0 | 6.0 | 4.5 | 4.0 | 8.5 | 4.5 | 7.5 | 2 (15-25) | 1 (5-10) | 4 (45-55) | 0 (0) | 2 (15-25) | 4 (45-55) | disease control rating, CURS (Rhizoctonia solani [8]; 2.5 kg/ha soil drench): 4 (45-55); disease control rating, CURS (Rhizoctonia solani [8]; 5.0 kg/ha soil drench): 6 (75-85); disease control rating, CURS (Rhizoctonia solani [8]; 10.0 kg/ha soil drench): 9 (100)
CN([O-])C(=S)C(=O)C(C)(C)C.CN([O-])C(=S)C(=O)C(C)(C)C.[Cu+2] [N,3,3-trimethyl-2-oxo-1-thiobutyrohydroxamic acid copper(+2) chelate] | 8.0 | 7.7 | 6.5 | 0.0 | 7.2 | 9.0 | 6.5 | 5.0 | 4.7 | 4.8 | 8.5 | 8.0 | 8.5 | 6.1 | 3 (30-40) | 5 (60-70) | 6 (75-85) | 1 (5-10) | 2 (15-25) | 1 (5-10) | disease control rating, PCE (Cercospora arachidicola): 7.0; disease control rating, WES [9]: 6.7; Control of Banana Black Sigatoka (rating) (Mycosphaerella fijiensis): 6.3; disease control rating, CURS (Rhizoctonia solani [8]; 2.5 kg/ha soil drench): 5 (60-70); disease control rating, CURS (Rhizoctonia solani [8]; 5.0 kg/ha soil drench): 6 (75-85); disease control rating, CURS (Rhizoctonia solani [8]; 10.0 kg/ha soil drench): 9 (100)
CN([O-])C(=S)C(=O)C(C)(C)C.CN([O-])C(=S)C(=O)C(C)(C)C.CN([O-])C(=S)C(=O)C(C)(C)C.[Fe+3] [N,3,3-trimethyl-2-oxo-1-thiobutyrohydroxamic acid iron(+3) chelate] | 9.0 | 8.5 | 6.0 | 0.0 | 8.2 | 9.0 | 6.5 | 5.5 | 3.3 | 1.3 | 2.5 | 8.0 | 4.5 | 6.8 | 1 (5-10) | 2 (15-25) | 3 (30-40) | 0 (0) | 1 (5-10) | 2 (15-25) | disease control rating, CURS (Rhizoctonia solani [8]; 2.5 kg/ha soil drench): 4 (45-55); disease control rating, CURS (Rhizoctonia solani [8]; 5.0 kg/ha soil drench): 6 (75-85); disease control rating, CURS (Rhizoctonia solani [8]; 10.0 kg/ha soil drench): 9 (100)
CN(O)C(=S)C(=O)C(C)(C)C [N,3,3-trimethyl-2-oxo-1-thiobutyrohydroxamic acid] | 5.0 | 4.3 | 3.0 | 2.7 | 7.0 | 2.7 | 1.7 | 6.3 | 0.3 | 0.0 | 1.0 | 6.0 | 6.0 | 3.5 | 1 (5-10) | 0 (0) | 1 (5-10) | 2 (15-25) | 2 (15-25) | 3 (30-40) | Control of Banana Black Sigatoka (rating) (Mycosphaerella fijiensis): 3.7; disease control rating, CURS (Rhizoctonia solani [8]; 2.5 kg/ha soil drench): 2 (15-25); disease control rating, CURS (Rhizoctonia solani [8]; 5.0 kg/ha soil drench): 5 (60-70); disease control rating, CURS (Rhizoctonia solani [8]; 10.0 kg/ha soil drench): 7 (90)
